In brackets after ≈: the same amount, converted by molar mass.
Legend:
cells = details: Homo sapiens, Pulmonary Artery Smooth Muscle Cells, read-out: pEC50 (converted)
[1] = Kinetic solubility of the compound in PBS at pH 7.2; type: physicochemical; details: read-out: Kinetic_solubility
[2] = Metabolic stability in rat microsomes assessed as half life; type: ADME, Microsome
[3] = Apparent permeability across apical to basolateral side in human Caco-2 cells; type: ADME, cell-based

Row | Structure (SMILES) | EC50 (cells) [nM] | solubility kinetic [1] [µM] | half-life [2] [min] | Papp A→B [3] [×10⁻⁶ cm/s]
1 | O=C1Cc2cc(-c3cn[nH]c3)ccc2CCN1c1ccccc1 | 398 |  |  | 
2 | O=C1Cc2cc(-c3ncnc4[nH]ccc34)ccc2CCN1c1ccccc1 | 50.1 |  |  | 
3 | CN1CCN(CCCOc2cccc(N3CCc4ccc(-c5ccnc6[nH]ccc56)cc4CC3=O)c2)CC1 | 5.01 |  | 8.4 | 5.6
4 | O=C1CCc2ccc(-c3ccnc4[nH]ccc34)cc2CN1c1ccccc1 |  | 131 (≈ 46.3 µg/mL) |  | 
5 | Nc1cc(-c2ccc3c(c2)CC(=O)N(c2ccccc2)CC3)ccn1 | 316 |  |  | 

Next, values leading:

Row | EC50 (cells) [nM] | solubility kinetic [1] [µM] | half-life [2] [min] | Papp A→B [3] [×10⁻⁶ cm/s] | Structure (SMILES)
6 | 12.6 | < 5 | 18 | 26.9 | O=C1Cc2cc(-c3ccnc4[nH]ccc34)ccc2CCN1c1ccccc1
7 | 31.6 |  |  |  | COc1cccc(N2CCc3ccc(-c4ccnc5[nH]ccc45)cc3CC2=O)c1

Source: ChEMBL document CHEMBL6134786, “Design and synthesis of novel 8-(azaindolyl)-benzoazepinones as potent and selective ROCK inhibitors” (RSC Med Chem, 2024)
